Measured values reported in ChEMBL document CHEMBL4270538, “Targeting prohibitin with small molecules to promote melanogenesis and apoptosis in melanoma cells” (Eur J Med Chem, 2018).
pIC50: −log10 of the molar value. Activity calls are given as the source filed them. The calls are words filed in the database; no cut-off is given here.

How the values were obtained:
[1] = target: Prohibitin-2 (Homo sapiens) (UniProt Q99623); assay: Induction of PHB2-mediated melanogenesis in human HBL cells assessed as pigmentation at 1 uM after 10 days relative to control; assay type: cell-based
Prohibitin-2 (Homo sapiens), sequence (Q99623 whole entry): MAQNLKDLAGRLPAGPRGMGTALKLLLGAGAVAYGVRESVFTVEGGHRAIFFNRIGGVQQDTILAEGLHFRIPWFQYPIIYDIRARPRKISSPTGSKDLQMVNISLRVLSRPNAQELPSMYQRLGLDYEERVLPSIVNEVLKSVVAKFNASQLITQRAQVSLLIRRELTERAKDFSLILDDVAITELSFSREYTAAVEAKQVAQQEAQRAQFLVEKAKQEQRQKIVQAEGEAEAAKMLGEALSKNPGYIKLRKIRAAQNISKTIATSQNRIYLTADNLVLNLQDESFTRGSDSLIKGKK

[2] = target: Prohibitin-2 (Homo sapiens) (UniProt Q99623); assay: Downregulation of PHB2 in human HBL cells at 0.1 to 10 uM after 24 to 48 hrs by Western blot analysis; assay type: cell-based
[3] = target: T1, Prohibitin 1 (Homo sapiens) (UniProt P35232); assay: Downregulation of PHB1 in human MM162 cells at 0.1 to 10 uM after 24 hrs by Western blot analysis; assay type: cell-based
T1 sequence (whole entry): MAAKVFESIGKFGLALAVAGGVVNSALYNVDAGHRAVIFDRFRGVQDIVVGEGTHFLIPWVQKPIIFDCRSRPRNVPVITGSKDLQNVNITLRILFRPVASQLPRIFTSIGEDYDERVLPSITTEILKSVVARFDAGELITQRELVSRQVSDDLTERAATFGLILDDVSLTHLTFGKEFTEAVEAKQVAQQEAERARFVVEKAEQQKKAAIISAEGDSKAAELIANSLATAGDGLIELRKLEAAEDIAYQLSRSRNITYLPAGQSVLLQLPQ

[4] = target: Prohibitin-2 (Homo sapiens) (UniProt Q99623); assay: Binding affinity to PHB2 in human HBL cells assessed as LC3-2 accumulation after 24 to 48 hrs by Western blot analysis; assay type: cell-based
[5] = target: RAC-alpha serine/threonine-protein kinase (Homo sapiens) (UniProt P31749); assay: Inhibition of Akt phosphorylation in human MM162 cells at 0.1 to 10 uM after 24 hrs by Western blot analysis; assay type: cell-based
RAC-alpha serine/threonine-protein kinase (Homo sapiens), sequence (P31749 whole entry): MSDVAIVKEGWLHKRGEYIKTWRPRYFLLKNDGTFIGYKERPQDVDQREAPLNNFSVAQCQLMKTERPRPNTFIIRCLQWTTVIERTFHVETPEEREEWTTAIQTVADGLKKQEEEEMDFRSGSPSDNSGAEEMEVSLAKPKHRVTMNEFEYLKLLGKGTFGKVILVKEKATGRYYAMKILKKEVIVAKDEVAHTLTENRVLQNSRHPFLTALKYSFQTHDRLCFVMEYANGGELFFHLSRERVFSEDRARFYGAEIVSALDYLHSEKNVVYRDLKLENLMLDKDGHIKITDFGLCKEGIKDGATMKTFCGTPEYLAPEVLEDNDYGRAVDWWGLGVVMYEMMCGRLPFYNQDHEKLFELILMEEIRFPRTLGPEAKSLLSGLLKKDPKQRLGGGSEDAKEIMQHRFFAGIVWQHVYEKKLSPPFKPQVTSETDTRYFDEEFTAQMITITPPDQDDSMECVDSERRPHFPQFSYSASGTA

[6] = target: Prohibitin-2 (Homo sapiens) (UniProt Q99623); assay: Induction of PHB2-mediated melanogenesis in human HBL cells assessed as pigmentation at 10 uM after 10 days relative to control; assay type: cell-based
[7] = target: Prohibitin-2 (Homo sapiens) (UniProt Q99623); assay: Induction of PHB2-mediated melanogenesis in human MM162 cells assessed as pigmentation at 1 to 10 uM after 10 days relative to control; assay type: cell-based
[8] = species: Homo sapiens; assay: Induction of apoptosis in human MM162 cells at 1 to 10 uM after 48 hrs by Annexin V-PE/7-AAD staining based flow cytometry; assay type: functional, cell-based
[9] = target: Prohibitin-2 (Homo sapiens) (UniProt Q99623); assay: Binding affinity to PHB2 in human HBL cells assessed as feedback mechanism based inhibition of ERK phosphorylation at 0.1 to 10 uM after 48 hrs by Western blot analysis; assay type: cell-based
[10] = target: Prohibitin-2 (Homo sapiens) (UniProt Q99623); assay: Binding affinity to PHB2 in human HL60 cells assessed as LC3-2 accumulation at 0.1 to 10 uM after 24 hrs by Western blot analysis; assay type: cell-based
[11] = target: Prohibitin-2 (Homo sapiens) (UniProt Q99623); assay: Binding affinity to PHB2 in human HBL cells assessed as upregulation of MITF protein expression at 0.1 to 10 uM after 24 to 48 hrs by Western blot analysis; assay type: cell-based
[12] = target: Prohibitin-2 (Homo sapiens) (UniProt Q99623); assay: Induction of PHB2-mediated melanogenesis in human HBL cells assessed as pigmentation at 10 uM after 10 days in presence of autophagy activator HD1; assay type: cell-based
[13] = target: T1, Prohibitin 1 (Homo sapiens); assay: Downregulation of PHB1 in human HL60 cells at 0.1 to 10 uM after 24 hrs by Western blot analysis; assay type: cell-based
[14] = target: Prohibitin-2 (Homo sapiens) (UniProt Q99623); assay: Induction of PHB2-mediated melanogenesis in human MM043 cells assessed as pigmentation at 1 to 10 uM after 10 days relative to control; assay type: cell-based
[15] = target: Prohibitin-2 (Homo sapiens) (UniProt Q99623); assay: Binding affinity to PHB2 in human HBL cells assessed as LC3-2 accumulation at 10 uM after 24 in presence of autophagy activator HD1 by Western blot analysis; assay type: cell-based
[16] = target: Prohibitin-2 (Homo sapiens) (UniProt Q99623); assay: Binding affinity to PHB2 in human HBL cells assessed as LC3-2 accumulation at 10 uM after 24 in presence of autophagy inhibitor PIK-3 by Western blot analysis; assay type: cell-based
[17] = test system: HL-60; assay: Inhibition of cell proliferation in human HL60 cells after 72 hrs by MTS assay; assay type: functional, cell-based; settings: HL-60, 72 h
[18] = target: Prohibitin-2 (Homo sapiens) (UniProt Q99623); assay: Binding affinity to PHB2 in human HBL cells assessed as upregulation of MITF protein expression at 10 uM after 24 in presence of autophagy inhibitor PIK-3 by Western blot analysis; assay type: cell-based
[19] = target: Prohibitin-2 (Homo sapiens) (UniProt Q99623); assay: Induction of PHB2-mediated melanogenesis in human HBL cells assessed as pigmentation at 10 uM after 10 days in presence of autophagy inhibitor PIK-3; assay type: cell-based
[20] = test system: KB; assay: Inhibition of cell proliferation in human KB cells after 72 hrs by MTS assay; assay type: functional, cell-based
[21] = target: Prohibitin-2 (Homo sapiens) (UniProt Q99623); assay: Downregulation of PHB2 in human HL60 cells at 0.1 to 10 uM after 24 hrs by Western blot analysis; assay type: cell-based
[22] = target: RAC-alpha serine/threonine-protein kinase (Homo sapiens) (UniProt P31749); assay: Inhibition of Akt phosphorylation in human HBL cells at 0.1 to 10 uM after 24 to 48 hrs by Western blot analysis; assay type: cell-based
[23] = target: T1, Prohibitin 1 (Homo sapiens); assay: Downregulation of PHB1 in human MM043 cells at 0.1 to 10 uM after 24 hrs by Western blot analysis; assay type: cell-based
[24] = target: RAC-alpha serine/threonine-protein kinase (Homo sapiens) (UniProt P31749); assay: Inhibition of Akt phosphorylation in human HL60 cells after 24 to 48 hrs by Western blot analysis; assay type: cell-based
[25] = target: Prohibitin-2 (Homo sapiens) (UniProt Q99623); assay: Binding affinity to PHB2 in human HBL cells assessed as upregulation of ERK phosphorylation at 0.1 to 10 uM after 24 hrs by Western blot analysis; assay type: cell-based
[26] = target: RAC-alpha serine/threonine-protein kinase (Homo sapiens) (UniProt P31749); assay: Inhibition of Akt phosphorylation in human MM043 cells at 0.1 to 10 uM after 24 hrs by Western blot analysis; assay type: cell-based
[27] = target: Prohibitin-2 (Homo sapiens) (UniProt Q99623); assay: Binding affinity to PHB2 in human HBL cells assessed as upregulation of tyrosinase protein expression at 0.1 to 10 uM after 24 to 48 hrs by Western blot analysis; assay type: cell-based
[28] = target: Prohibitin-2 (Homo sapiens) (UniProt Q99623); assay: Downregulation of PHB2 in human MM162 cells at 0.1 to 10 uM after 24 hrs by Western blot analysis; assay type: cell-based
[29] = target: Prohibitin-2 (Homo sapiens) (UniProt Q99623); assay: Binding affinity to PHB2 in human HBL cells assessed as upregulation of MITF protein expression at 10 uM after 24 in presence of autophagy activator HD1 by Western blot analysis; assay type: cell-based
[30] = test system: HBL; assay: Induction of apoptosis in human HBL cells at 1 to 10 uM after 48 hrs by Annexin V-PE/7-AAD staining based flow cytometry; assay type: functional, cell-based
[31] = target: Prohibitin-2 (Homo sapiens) (UniProt Q99623); assay: Downregulation of PHB2 in human MM043 cells at 0.1 to 10 uM after 24 hrs by Western blot analysis; assay type: cell-based
[32] = target: T1, Prohibitin 1 (Homo sapiens); assay: Downregulation of PHB1 in human HBL cells at 0.1 to 10 uM after 24 to 48 hrs by Western blot analysis; assay type: cell-based
[33] = species: Homo sapiens; assay: Induction of apoptosis in human MM043 cells at 1 to 10 uM after 48 hrs by Annexin V-PE/7-AAD staining based flow cytometry; assay type: functional, cell-based
[34] = target: Prohibitin-2 (Homo sapiens) (UniProt Q99623); assay: Binding affinity to PHB2 in human HL60 cells assessed as upregulation of ERK phosphorylation at 0.1 uM after 24 hrs by Western blot analysis; assay type: cell-based

SMILES	fold change (FC) [1]	Activity [2]	Activity [4]	fold change (FC) [6]	Activity [7]	inhibition [9]	Activity [10]	Activity [11]	Activity [13]	Activity [14]	pIC50 [17]	pIC50 [20]	Activity [21]	inhibition [22]	inhibition [24]	Activity [25]	Activity [27]	Activity [32]	Activity [34]	further results
Fc1cccc(CNc2nc(Oc3c(F)c(F)c(F)c(F)c3F)nc(N3CCC(N4CCCCC4)CC3)n2)c1	1.15	Active	Dose-dependent effect	2.01	Active	Active	Active	Active	Active	Active	4.60	4.34	Active	Active	Dose-dependent effect	Active	Active	Active	Active	Activity [3]: Active; inhibition [5]: Active; Activity [8]: Active; Activity [12]: Active; Activity [15]: Active; Activity [16]: inactive; Activity [18]: inactive; Activity [19]: inactive; Activity [23]: Active; inhibition [26]: Active; Activity [28]: Active; Activity [29]: Active; Activity [30]: Active; Activity [31]: Active; Activity [33]: Active
CN(C)CCNc1nc(Oc2c(F)c(F)c(F)c(F)c2F)nc(N2CCCc3ccccc3C2)n1	0.89	Active	Dose-dependent effect	2.23	Active	Active	Active	Active	Active	Active	4.02	4.20	Active	Active	Dose-dependent effect	Active	Active	Active	Active	–
